Tested on: Streptococcus pyogenes
Test: Antibacterial activity against Streptococcus pyogenes clinical isolate by agar dilution method

O=C(O)c1cn(C2CC2)c2cc(N3CCNCC3)c(F)cc2c1=O [CIPROFLOXACIN]
MIC: ≥ 2 µg/mL

— ChEMBL document CHEMBL1275548, “Interspecies recombination occurs frequently in quinolone resistance-determining regions of clinical isolates of Streptococcus pyogenes” (2008)
